How the values were obtained:
[1] = short period of time; cited from earlier work
[2] = Thermal stability / conversion of 17-β-estradiol semihydrate to the anhydrous form; type: physicochemical
Description: At room temperature and usual relative humidity of air (20 to 60% relative humidity), 17-β-estradiol is not present in one of the two known modifications (I and II) which are free from crystal water but as a semihydrate (Busetti a. Hospital, Acta Cryst. 1972, B28, 560). Due to the stratified structure of the crystal compound, which is stabilized by hydrogen bridges, and its diffusion density, the hydrate can be heated for a short period of time to temperatures of about 170° C. (Kuhnert-Brandstatter u. Winkler (1976) Scientia Pharmaceutica 44 (3), 177-190) while remaining undecomposed. However, by way of micronization, i.e. increasing the surface of the crystals, it is possible to quantitatively convert 17-β-estradiol semihydrate to its anhydrous form at as low a temperature as about 120° C. According to our own observations, conversion already occurs at about 90° C. where heating is slow (0.2 to 1 K/min) and particularly fine material is used.

temperature of quantitative conversion to the anhydrous form ([2]; micronized): about 120 °C
temperature at which conversion already occurs ([2]; slow heating (0.2 to 1 K/min), particularly fine material, own observations): about 90 °C
SMILES: C[C@]12CC[C@@H]3c4ccc(O)cc4CC[C@H]3[C@@H]1CC[C@@H]2O [17-β-estradiol semihydrate]
temperature to which the hydrate can be heated while remaining undecomposed [1]: about 170 °C
